Here are results for two compounds from paper PMC10203128, “Structures of human SGLT in the occluded state reveal conformational changes during sugar transport” (Nature Communications, 2023).

One assay concerns the target T1, hSGLT2 (Homo sapiens, UniProt P31639).
T1 construct: gene SLC5A2; hSGLT2GFP-MAP17nb, in lipid nanodisc; with MAP17
T1 sequence (P31639 1-672): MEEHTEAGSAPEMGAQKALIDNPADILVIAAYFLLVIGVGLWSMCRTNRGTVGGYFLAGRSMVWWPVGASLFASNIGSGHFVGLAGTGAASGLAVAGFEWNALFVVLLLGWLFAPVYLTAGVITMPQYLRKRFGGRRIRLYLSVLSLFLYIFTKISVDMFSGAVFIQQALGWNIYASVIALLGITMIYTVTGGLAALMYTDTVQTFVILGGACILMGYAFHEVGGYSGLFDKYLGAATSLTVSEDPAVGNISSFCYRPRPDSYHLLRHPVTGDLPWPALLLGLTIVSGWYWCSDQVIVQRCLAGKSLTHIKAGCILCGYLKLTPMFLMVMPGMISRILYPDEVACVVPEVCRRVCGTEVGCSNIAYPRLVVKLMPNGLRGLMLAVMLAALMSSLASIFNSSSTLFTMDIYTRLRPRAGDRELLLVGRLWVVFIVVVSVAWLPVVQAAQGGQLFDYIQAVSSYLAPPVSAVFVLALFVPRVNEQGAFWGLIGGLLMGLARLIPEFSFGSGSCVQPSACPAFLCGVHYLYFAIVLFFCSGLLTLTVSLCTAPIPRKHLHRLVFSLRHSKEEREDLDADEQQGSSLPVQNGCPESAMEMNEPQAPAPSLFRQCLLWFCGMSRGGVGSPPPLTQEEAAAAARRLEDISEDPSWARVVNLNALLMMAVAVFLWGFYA
T1 sequence (Q13113 1-114 partner): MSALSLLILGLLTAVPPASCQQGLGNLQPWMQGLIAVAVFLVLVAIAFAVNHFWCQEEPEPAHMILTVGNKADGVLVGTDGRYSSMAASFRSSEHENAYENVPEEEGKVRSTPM
Briefly: cryo-EM structure of the complex at […] Å ([…] AMG). The assay is classed as binding.

A further assay has as its target T2, hSGLT1 (Homo sapiens, UniProt P13866).
T2 construct: gene SLC5A1; hSGLT1GFP-MAP17nb (three-joint-tethering construct), in lipid nanodisc; with MAP17
T2 sequence (P13866 1-664): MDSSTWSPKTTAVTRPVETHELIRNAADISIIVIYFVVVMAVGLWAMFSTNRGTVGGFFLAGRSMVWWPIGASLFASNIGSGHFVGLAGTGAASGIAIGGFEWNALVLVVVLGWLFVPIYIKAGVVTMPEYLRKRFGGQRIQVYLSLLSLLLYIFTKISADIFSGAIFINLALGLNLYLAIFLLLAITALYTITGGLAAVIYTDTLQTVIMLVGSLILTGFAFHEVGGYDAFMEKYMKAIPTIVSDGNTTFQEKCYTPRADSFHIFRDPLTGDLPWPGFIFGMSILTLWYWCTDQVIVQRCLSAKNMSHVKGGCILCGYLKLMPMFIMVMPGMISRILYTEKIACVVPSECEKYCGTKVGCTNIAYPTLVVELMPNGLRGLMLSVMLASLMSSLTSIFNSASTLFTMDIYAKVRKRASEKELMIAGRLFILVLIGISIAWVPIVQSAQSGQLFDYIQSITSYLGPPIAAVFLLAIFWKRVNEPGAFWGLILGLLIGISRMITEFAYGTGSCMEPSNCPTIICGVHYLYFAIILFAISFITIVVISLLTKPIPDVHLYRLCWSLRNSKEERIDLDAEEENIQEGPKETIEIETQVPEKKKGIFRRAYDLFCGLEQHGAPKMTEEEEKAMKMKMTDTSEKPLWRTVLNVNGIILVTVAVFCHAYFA
T2 sequence (Q13113 1-114 partner): T1 sequence (Q13113 1-114 partner)
The assay is described as follows: cryo-EM structure of the complex at […] Å; IC50 from inhibition of […]-NBD-glucose uptake in cells. The assay is classed as cell-based.

As to `CO[C@H]1O[C@H](CO)C(O)[C@H](O)[C@H]1O` (stereo in doubt) [AMG, methyl alpha-D-galactopyranoside], the “cryo-EM structure of the complex at 3.33 Å (100 mM AMG)” value at hSGLT2 is listed as “We observed that AMG is bound in an occluded substrate-binding site”.
As for `OC[C@H]1OC(O)[C@H](O)[C@@H](O)[C@@H]1F` (stereo partly drawn) [4D4FDG, 4-deoxy-4-fluoro-D-glucose], the IC50 against hSGLT1 is ~70 µM.
